Reference: the NIST ThermoML archive (doi:10.1021/je700297c)
± gives the expanded uncertainty stated by the source.

Assay: activity coefficient (dimensionless); of the first substance listed, at infinite dilution; xn = mol fraction of the nth substance listed
Conditions: Liquid, Chromatography, x1 = 0

## c1ccccc1 [benzene] + CCCCCCCCCCCCCCCC(=O)[O-].CCCCn1cc[n+](C)c1
333 K
  activity coefficient: 0.7 ± 0.1

## c1ccccc1 [benzene] + CCCCCCCCCCCCCCCCCC(=O)[O-].CCCCn1cc[n+](C)c1
323 K
  activity coefficient: 0.7 ± 0.1
333 K
  activity coefficient: 0.7 ± 0.1

## c1ccccc1 [benzene] + CCCCCCCC[n+]1ccn(C)c1.F[B-](F)(F)F
298 K
  activity coefficient: 0.7 ± 0.1
323 K
  activity coefficient: 0.6 ± 0.1

## c1ccccc1 [benzene] + CCCC[n+]1ccn(C)c1.O=S(=O)([N-]S(=O)(=O)C(F)(F)F)C(F)(F)F
323 K
  activity coefficient: 0.8 ± 0.1

## c1ccccc1 [benzene] + CCCCn1cc[n+](C)c1.F[B-](F)(F)F
298 K
  activity coefficient: 1.5 ± 0.1
323 K
  activity coefficient: 1.5 ± 0.1

## c1ccccc1 [benzene] + C[n+]1ccn(CCCC#N)c1.N#CN=C=[N-]
303 K
  activity coefficient: 2.3 ± 0.2
323 K
  activity coefficient: 2.2 ± 0.2

## c1ccccc1 [benzene] + C[n+]1ccn(CCCC#N)c1.O=S(=O)([N-]S(=O)(=O)C(F)(F)F)C(F)(F)F
303 K
  activity coefficient: 1.8 ± 0.1
323 K
  activity coefficient: 1.7 ± 0.1

## C1CCCCC1 [cyclohexane] + CCCCCCCCCCCCCCCC(=O)[O-].CCCCn1cc[n+](C)c1
333 K
  activity coefficient: 0.9 ± 0.1

## C1CCCCC1 [cyclohexane] + CCCCCCCCCCCCCCCCCC(=O)[O-].CCCCn1cc[n+](C)c1
323 K
  activity coefficient: 1.1 ± 0.1
333 K
  activity coefficient: 1.2 ± 0.1

## C1CCCCC1 [cyclohexane] + CCCCCCCC[n+]1ccn(C)c1.F[B-](F)(F)F
298 K
  activity coefficient: 5.3 ± 0.4
323 K
  activity coefficient: 3.9 ± 0.3

## C1CCCCC1 [cyclohexane] + CCCC[n+]1ccn(C)c1.O=S(=O)([N-]S(=O)(=O)C(F)(F)F)C(F)(F)F
323 K
  activity coefficient: 6.7 ± 0.5

## C1CCCCC1 [cyclohexane] + CCCCn1cc[n+](C)c1.F[B-](F)(F)F
298 K
  activity coefficient: 30.7 ± 2.1
323 K
  activity coefficient: 24.7 ± 1.7

## C1CCCCC1 [cyclohexane] + C[n+]1ccn(CCCC#N)c1.N#CN=C=[N-]
303 K
  activity coefficient: 81.7 ± 5.6
323 K
  activity coefficient: 58.9 ± 4

## C1CCCCC1 [cyclohexane] + C[n+]1ccn(CCCC#N)c1.O=S(=O)([N-]S(=O)(=O)C(F)(F)F)C(F)(F)F
303 K
  activity coefficient: 55.4 ± 3.8
323 K
  activity coefficient: 45.9 ± 3.1

## CCO [ethanol] + CCCCCCCCCCCCCCCC(=O)[O-].CCCCn1cc[n+](C)c1
333 K
  activity coefficient: 0.4 ± 0.1

## CCO [ethanol] + CCCCCCCCCCCCCCCCCC(=O)[O-].CCCCn1cc[n+](C)c1
323 K
  activity coefficient: 0.5 ± 0.1
333 K
  activity coefficient: 0.4 ± 0.1

## CCO [ethanol] + CCCCCCCC[n+]1ccn(C)c1.F[B-](F)(F)F
298 K
  activity coefficient: 0.5 ± 0.1
323 K
  activity coefficient: 0.4 ± 0.1

## CCO [ethanol] + CCCC[n+]1ccn(C)c1.O=S(=O)([N-]S(=O)(=O)C(F)(F)F)C(F)(F)F
323 K
  activity coefficient: 1.2 ± 0.1

## CCO [ethanol] + CCCCn1cc[n+](C)c1.F[B-](F)(F)F
298 K
  activity coefficient: 1.1 ± 0.1
323 K
  activity coefficient: 1 ± 0.1

## CCO [ethanol] + C[n+]1ccn(CCCC#N)c1.N#CN=C=[N-]
303 K
  activity coefficient: 0.5 ± 0.1
323 K
  activity coefficient: 0.4 ± 0.1

## CCO [ethanol] + C[n+]1ccn(CCCC#N)c1.O=S(=O)([N-]S(=O)(=O)C(F)(F)F)C(F)(F)F
303 K
  activity coefficient: 1.7 ± 0.1
323 K
  activity coefficient: 1.4 ± 0.1

## CCOC(C)=O [ethyl acetate] + CCCCCCCCCCCCCCCC(=O)[O-].CCCCn1cc[n+](C)c1
333 K
  activity coefficient: 1 ± 0.1

## CCOC(C)=O [ethyl acetate] + CCCCCCCCCCCCCCCCCC(=O)[O-].CCCCn1cc[n+](C)c1
323 K
  activity coefficient: 1.1 ± 0.1
333 K
  activity coefficient: 1.1 ± 0.1

## CCOC(C)=O [ethyl acetate] + CCCCCCCC[n+]1ccn(C)c1.F[B-](F)(F)F
298 K
  activity coefficient: 0.9 ± 0.1
323 K
  activity coefficient: 0.8 ± 0.1

## CCOC(C)=O [ethyl acetate] + CCCC[n+]1ccn(C)c1.O=S(=O)([N-]S(=O)(=O)C(F)(F)F)C(F)(F)F
323 K
  activity coefficient: 0.7 ± 0.1

## CCOC(C)=O [ethyl acetate] + CCCCn1cc[n+](C)c1.F[B-](F)(F)F
298 K
  activity coefficient: 1.8 ± 0.1
323 K
  activity coefficient: 1.7 ± 0.1

## CCOC(C)=O [ethyl acetate] + C[n+]1ccn(CCCC#N)c1.N#CN=C=[N-]
303 K
  activity coefficient: 2.8 ± 0.2
323 K
  activity coefficient: 2.7 ± 0.2

## CCOC(C)=O [ethyl acetate] + C[n+]1ccn(CCCC#N)c1.O=S(=O)([N-]S(=O)(=O)C(F)(F)F)C(F)(F)F
303 K
  activity coefficient: 2.1 ± 0.2
323 K
  activity coefficient: 2.1 ± 0.2

## CCCCCCC [heptane] + CCCCCCCCCCCCCCCC(=O)[O-].CCCCn1cc[n+](C)c1
333 K
  activity coefficient: 1.4 ± 0.1

## CCCCCCC [heptane] + CCCCCCCCCCCCCCCCCC(=O)[O-].CCCCn1cc[n+](C)c1
323 K
  activity coefficient: 1.8 ± 0.1
333 K
  activity coefficient: 1.5 ± 0.1

## CCCCCCC [heptane] + CCCCCCCC[n+]1ccn(C)c1.F[B-](F)(F)F
298 K
  activity coefficient: 11 ± 0.8
323 K
  activity coefficient: 8.4 ± 0.6

## CCCCCCC [heptane] + CCCC[n+]1ccn(C)c1.O=S(=O)([N-]S(=O)(=O)C(F)(F)F)C(F)(F)F
323 K
  activity coefficient: 15.5 ± 1.1

## CCCCCCC [heptane] + CCCCn1cc[n+](C)c1.F[B-](F)(F)F
298 K
  activity coefficient: 83.5 ± 5.7
323 K
  activity coefficient: 70.3 ± 4.8

## CCCCCCC [heptane] + C[n+]1ccn(CCCC#N)c1.N#CN=C=[N-]
303 K
  activity coefficient: 231 ± 16
323 K
  activity coefficient: 197 ± 14

## CCCCCCC [heptane] + C[n+]1ccn(CCCC#N)c1.O=S(=O)([N-]S(=O)(=O)C(F)(F)F)C(F)(F)F
303 K
  activity coefficient: 134 ± 9.2
323 K
  activity coefficient: 126 ± 8.7

## C=CCCCC [hex-1-ene] + CCCCCCCCCCCCCCCC(=O)[O-].CCCCn1cc[n+](C)c1
333 K
  activity coefficient: 1.1 ± 0.1

## C=CCCCC [hex-1-ene] + CCCCCCCCCCCCCCCCCC(=O)[O-].CCCCn1cc[n+](C)c1
323 K
  activity coefficient: 1.4 ± 0.1
333 K
  activity coefficient: 1.2 ± 0.1

## C=CCCCC [hex-1-ene] + CCCCCCCC[n+]1ccn(C)c1.F[B-](F)(F)F
298 K
  activity coefficient: 4.9 ± 0.3
323 K
  activity coefficient: 3.9 ± 0.3

## C=CCCCC [hex-1-ene] + CCCC[n+]1ccn(C)c1.O=S(=O)([N-]S(=O)(=O)C(F)(F)F)C(F)(F)F
323 K
  activity coefficient: 6 ± 0.4

## C=CCCCC [hex-1-ene] + CCCCn1cc[n+](C)c1.F[B-](F)(F)F
298 K
  activity coefficient: 25.8 ± 1.8
323 K
  activity coefficient: 21.8 ± 1.5

## C=CCCCC [hex-1-ene] + C[n+]1ccn(CCCC#N)c1.N#CN=C=[N-]
303 K
  activity coefficient: 71.7 ± 4.9
323 K
  activity coefficient: 60.4 ± 4.1

## C=CCCCC [hex-1-ene] + C[n+]1ccn(CCCC#N)c1.O=S(=O)([N-]S(=O)(=O)C(F)(F)F)C(F)(F)F
303 K
  activity coefficient: 54.2 ± 3.7
323 K
  activity coefficient: 47.1 ± 3.2

## CCCCCC [hexane] + CCCCCCCCCCCCCCCC(=O)[O-].CCCCn1cc[n+](C)c1
333 K
  activity coefficient: 1.3 ± 0.1

## CCCCCC [hexane] + CCCCCCCCCCCCCCCCCC(=O)[O-].CCCCn1cc[n+](C)c1
323 K
  activity coefficient: 1.7 ± 0.1
333 K
  activity coefficient: 1.4 ± 0.1

## CCCCCC [hexane] + CCCCCCCC[n+]1ccn(C)c1.F[B-](F)(F)F
298 K
  activity coefficient: 8.6 ± 0.6
323 K
  activity coefficient: 6.7 ± 0.5

## CCCCCC [hexane] + CCCC[n+]1ccn(C)c1.O=S(=O)([N-]S(=O)(=O)C(F)(F)F)C(F)(F)F
323 K
  activity coefficient: 12.8 ± 0.9

## CCCCCC [hexane] + CCCCn1cc[n+](C)c1.F[B-](F)(F)F
298 K
  activity coefficient: 65.9 ± 4.5
323 K
  activity coefficient: 50.6 ± 3.5

## CCCCCC [hexane] + C[n+]1ccn(CCCC#N)c1.N#CN=C=[N-]
303 K
  activity coefficient: 213 ± 15
323 K
  activity coefficient: 145 ± 9.9

## CCCCCC [hexane] + C[n+]1ccn(CCCC#N)c1.O=S(=O)([N-]S(=O)(=O)C(F)(F)F)C(F)(F)F
303 K
  activity coefficient: 126 ± 8.6
323 K
  activity coefficient: 113 ± 7.7

## CO [methanol] + CCCCCCCCCCCCCCCC(=O)[O-].CCCCn1cc[n+](C)c1
333 K
  activity coefficient: 0.3 ± 0.1

## CO [methanol] + CCCCCCCCCCCCCCCCCC(=O)[O-].CCCCn1cc[n+](C)c1
323 K
  activity coefficient: 0.3 ± 0.1
333 K
  activity coefficient: 0.3 ± 0.1

## CO [methanol] + CCCCCCCC[n+]1ccn(C)c1.F[B-](F)(F)F
298 K
  activity coefficient: 0.3 ± 0.1
323 K
  activity coefficient: 0.3 ± 0.1

## CO [methanol] + CCCC[n+]1ccn(C)c1.O=S(=O)([N-]S(=O)(=O)C(F)(F)F)C(F)(F)F
323 K
  activity coefficient: 0.8 ± 0.1

## CO [methanol] + CCCCn1cc[n+](C)c1.F[B-](F)(F)F
298 K
  activity coefficient: 0.8 ± 0.1
323 K
  activity coefficient: 0.7 ± 0.1

## CO [methanol] + C[n+]1ccn(CCCC#N)c1.N#CN=C=[N-]
303 K
  activity coefficient: 0.3 ± 0.1
323 K
  activity coefficient: 0.3 ± 0.1

## CO [methanol] + C[n+]1ccn(CCCC#N)c1.O=S(=O)([N-]S(=O)(=O)C(F)(F)F)C(F)(F)F
303 K
  activity coefficient: 1.1 ± 0.1
323 K
  activity coefficient: 1 ± 0.1

## CC1CCCCC1 [methylcyclohexane] + CCCCCCCCCCCCCCCC(=O)[O-].CCCCn1cc[n+](C)c1
333 K
  activity coefficient: 1 ± 0.1

## CC1CCCCC1 [methylcyclohexane] + CCCCCCCCCCCCCCCCCC(=O)[O-].CCCCn1cc[n+](C)c1
323 K
  activity coefficient: 1.3 ± 0.1
333 K
  activity coefficient: 1.3 ± 0.1

## CC1CCCCC1 [methylcyclohexane] + CCCCCCCC[n+]1ccn(C)c1.F[B-](F)(F)F
298 K
  activity coefficient: 6.7 ± 0.5
323 K
  activity coefficient: 5.3 ± 0.4

## CC1CCCCC1 [methylcyclohexane] + CCCC[n+]1ccn(C)c1.O=S(=O)([N-]S(=O)(=O)C(F)(F)F)C(F)(F)F
323 K
  activity coefficient: 9.1 ± 0.6

## CC1CCCCC1 [methylcyclohexane] + CCCCn1cc[n+](C)c1.F[B-](F)(F)F
298 K
  activity coefficient: 43.7 ± 3
323 K
  activity coefficient: 35.5 ± 2.4

## CC1CCCCC1 [methylcyclohexane] + C[n+]1ccn(CCCC#N)c1.N#CN=C=[N-]
303 K
  activity coefficient: 118 ± 8.1
323 K
  activity coefficient: 84.9 ± 5.8

## CC1CCCCC1 [methylcyclohexane] + C[n+]1ccn(CCCC#N)c1.O=S(=O)([N-]S(=O)(=O)C(F)(F)F)C(F)(F)F
303 K
  activity coefficient: 75.1 ± 5.1
323 K
  activity coefficient: 66.2 ± 4.5

## C=CCCCCCC [oct-1-ene] + CCCCCCCCCCCCCCCC(=O)[O-].CCCCn1cc[n+](C)c1
333 K
  activity coefficient: 1.4 ± 0.1

## C=CCCCCCC [oct-1-ene] + CCCCCCCCCCCCCCCCCC(=O)[O-].CCCCn1cc[n+](C)c1
323 K
  activity coefficient: 1.7 ± 0.1
333 K
  activity coefficient: 1.4 ± 0.1

## C=CCCCCCC [oct-1-ene] + CCCCCCCC[n+]1ccn(C)c1.F[B-](F)(F)F
298 K
  activity coefficient: 7.8 ± 0.5
323 K
  activity coefficient: 6.6 ± 0.5

## C=CCCCCCC [oct-1-ene] + CCCC[n+]1ccn(C)c1.O=S(=O)([N-]S(=O)(=O)C(F)(F)F)C(F)(F)F
323 K
  activity coefficient: 12.3 ± 0.8
